Test results published in PubChem BioAssay AID248 (DTP/NCI, 2004).
Values joined by “and” are separate entries in the source; they are usually repeats but may differ in a detail not shown here. Identical values can stand only once. Toxic doses and inconclusive results are not listed. No stated cut-off is given here; in the data, active means T/C of 150% or more; inactive means T/C below 125%. Numbered stars: 1 amine (or outer) side, 2 acyl side, 3 side chain; on linkers, the order of the positions; unused ones are H or OH. Bridge positions count the residues as written; N and C are the ends. Square brackets hold non-standard residues; d marks the D form. Peptide text beside a SMILES is read from it. I, II: the chains in the order shown. Actinocin(9to1) = Cc1c2oc3c(C)ccc(C(=O)[*:1])c3nc-2c(C(=O)[*:2])c(N)c1=O; NMeV = CN[CH](C(=O)O)C(C)C; Sar = CNCC(=O)O

System: L1210 leukemia ip in BDF1 mice, survival T/C
Assay: NCI In Vivo Anticancer Drug Screen. Data for tumor model L1210 Leukemia (intraperitoneal) in B6D2F1 (BDF1) mice
Conditions: endpoint: mean survival time, higher = longer survival
Summary of the method: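 Tumor cells were implanted, animals were treated, and survival was followed. The result divides the treated measurement by the vehicle-control measurement.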

[1] = dose: 25.0 mg/kg/injection, schedule: Q04DX003 (ip), vehicle: saline with Tween-80
[2] = dose: 100.0 mg/kg/injection, schedule: Q01DX001 (ip), vehicle: saline with Tween-80
[3] = dose: 100.0 mg/kg/injection, schedule: Q01DX009 (ip), vehicle: saline with Tween-80
[4] = dose: 100.0 mg/kg/injection, schedule: Q04DX003 (ip), vehicle: saline with Tween-80
[5] = dose: 200.0 mg/kg/injection, schedule: Q01DX009 (ip), vehicle: Klucel (hydroxypropylcellulose) (HPC)
[6] = dose: 100.0 mg/kg/injection, schedule: Q01DX009 (ip), vehicle: Klucel (hydroxypropylcellulose) (HPC)
[7] = dose: 200.0 mg/kg/injection, schedule: Q04DX003 (ip), vehicle: saline with Tween-80
[8] = dose: 400.0 mg/kg/injection, schedule: Q04DX003 (ip), vehicle: saline with Tween-80
[9] = dose: 400.0 mg/kg/injection, schedule: Q01DX009 (ip), vehicle: saline with Tween-80
[10] = dose: 100.0 mg/kg/injection, schedule: Q04DX002 (ip), vehicle: saline
[11] = dose: 200.0 mg/kg/injection, schedule: Q04DX002 (ip), vehicle: saline
[12] = dose: 400.0 mg/kg/injection, schedule: Q04DX002 (ip), vehicle: saline

Measured: T/C

O=C(Nc1ccc(Cl)c(Cl)c1)c1ccco1
inactive: dose: 12.5 mg/kg/injection, schedule: Q01DX009 (ip), vehicle: saline with Tween-80 92 % of control and 93 % of control | dose: 25.0 mg/kg/injection, schedule: Q01DX001 (ip), vehicle: saline with Tween-80 97 % of control | dose: 25.0 mg/kg/injection, schedule: Q04DX002 (ip), vehicle: saline with Tween-80 116 % of control and 91 % of control | [1] 96 % of control | dose: 50.0 mg/kg/injection, schedule: Q01DX001 (ip), vehicle: saline with Tween-80 103 % of control | dose: 50.0 mg/kg/injection, schedule: Q04DX002 (ip), vehicle: saline with Tween-80 116 % of control and 91 % of control | dose: 50.0 mg/kg/injection, schedule: Q04DX003 (ip), vehicle: saline with Tween-80 93 % of control | [2] 109 % of control | [3] 93 % of control | [4] 95 % of control

CC(C)N=NCCO
inactive: dose: 100.0 mg/kg/injection, schedule: Q01DX001 (ip), vehicle: Klucel (hydroxypropylcellulose) (HPC) 101 % of control | dose: 200.0 mg/kg/injection, schedule: Q01DX001 (ip), vehicle: Klucel (hydroxypropylcellulose) (HPC) 103 % of control | [5] 92 % of control | dose: 400.0 mg/kg/injection, schedule: Q01DX001 (ip), vehicle: Klucel (hydroxypropylcellulose) (HPC) 99 % of control

CC(=O)OC1CCC(NC(=O)NCCF)CC1 (stereo not given)
inactive: dose: 100.0 mg/kg/injection, schedule: Q01DX001 (ip), vehicle: other 98 % of control | dose: 200.0 mg/kg/injection, schedule: Q01DX001 (ip), vehicle: other 104 % of control | dose: 400.0 mg/kg/injection, schedule: Q01DX001 (ip), vehicle: other 115 % of control

Cc1cc(S(=O)(=O)F)ccc1NC(=O)/C=C/c1ccc([N+](=O)[O-])cc1
inactive: [6] 97 % of control | dose: 400.0 mg/kg/injection, schedule: Q01DX009 (ip), vehicle: Klucel (hydroxypropylcellulose) (HPC) 92 % of control

C[N+]1(CC2CO2)CCCCCC1 (stereo not given)
inactive: dose: 75.0 mg/kg/injection, schedule: Q01DX001 (ip), vehicle: saline 95 % of control

CC(=O)NCCCCCCCCCCNC(C)=O
inactive: dose: 10.0 mg/kg/injection, schedule: Q01DX Z (ip), vehicle: saline 91 % of control | dose: 30.0 mg/kg/injection, schedule: Q01DX Z (ip), vehicle: saline 95 % of control | dose: 100.0 mg/kg/injection, schedule: Q01DX Z (ip), vehicle: saline 95 % of control | dose: 300.0 mg/kg/injection, schedule: Q01DX Z (ip), vehicle: saline 98 % of control

Cc1c2oc3c(C)ccc(C(=O)NC4C(=O)NC(C(C)C)C(=O)N(C)CC(=O)N(C)CC(=O)N(C)C(C(C)C)C(=O)OC4C)c3nc-2c(C(=O)NC2C(=O)NC(C(C)C)C(=O)N(C)CC(=O)N(C)CC(=O)N(C)C(C(C)C)C(=O)OC2C)c(N)c1=O (stereo not given) (I: TV[Sar][Sar][NMeV] / II: TV[Sar][Sar][NMeV]; ester I:1-I:C, II:1-II:C; linker I:N-II:N via Actinocin(9to1); configuration not given here)
inactive: dose: 0.05 mg/kg/injection, schedule: Q01DX009 (ip), vehicle: other 94 % of control | dose: 0.1 mg/kg/injection, schedule: Q01DX009 (ip), vehicle: other 108 % of control | dose: 0.2 mg/kg/injection, schedule: Q01DX009 (ip), vehicle: other 106 % of control | dose: 0.4 mg/kg/injection, schedule: Q01DX009 (ip), vehicle: other 115 % of control | dose: 0.5 mg/kg/injection, schedule: Q01DX001 (ip), vehicle: saline + alcohol 105 % of control | dose: 0.8 mg/kg/injection, schedule: Q01DX009 (ip), vehicle: other 120 % of control | dose: 1.0 mg/kg/injection, schedule: Q01DX001 (ip), vehicle: saline + alcohol 112 % of control | dose: 1.6 mg/kg/injection, schedule: Q01DX009 (ip), vehicle: other 92 % of control | dose: 2.0 mg/kg/injection, schedule: Q01DX001 (ip), vehicle: saline + alcohol 116 % of control | dose: 4.0 mg/kg/injection, schedule: Q01DX001 (ip), vehicle: saline + alcohol 113 % of control | dose: 62.5 micrograms/kg/injection, schedule: Q01DX009 (ip), vehicle: saline + alcohol 105 % of control | dose: 125.0 micrograms/kg/injection, schedule: Q01DX009 (ip), vehicle: saline + alcohol 112 % of control | dose: 188.0 micrograms/kg/injection, schedule: Q04DX003 (ip), vehicle: saline + alcohol 107 % of control | dose: 250.0 micrograms/kg/injection, schedule: Q01DX009 (ip), vehicle: saline + alcohol 119 % of control | dose: 375.0 micrograms/kg/injection, schedule: Q04DX003 (ip), vehicle: saline + alcohol 106 % of control | dose: 750.0 micrograms/kg/injection, schedule: Q04DX003 (ip), vehicle: saline + alcohol 112 % of control | dose: 1500.0 micrograms/kg/injection, schedule: Q04DX003 (ip), vehicle: saline + alcohol 119 % of control

Cc1ccc([N+](=O)[O-])cc1NC(=O)Sc1ccc(C(C)(C)C)cc1
inactive: dose: 100.0 mg/kg/injection, schedule: Q04DX003 (ip), vehicle: Klucel (hydroxypropylcellulose) (HPC) 98 % of control | dose: 200.0 mg/kg/injection, schedule: Q04DX003 (ip), vehicle: Klucel (hydroxypropylcellulose) (HPC) 98 % of control | dose: 400.0 mg/kg/injection, schedule: Q04DX003 (ip), vehicle: Klucel (hydroxypropylcellulose) (HPC) 98 % of control

CSc1ccccc1/C=C(/C(=O)O)c1ccccc1O
inactive: [2] 103 % of control | dose: 200.0 mg/kg/injection, schedule: Q01DX001 (ip), vehicle: saline with Tween-80 97 % of control | dose: 400.0 mg/kg/injection, schedule: Q01DX001 (ip), vehicle: saline with Tween-80 103 % of control

O=C1N=C2C=CC=CN2CC1O (stereo not given)
inactive: [4] 88 % of control | [7] 89 % of control | [8] 89 % of control

OC1(c2ccccc2)c2ccccc2C(O)(c2ccccc2)c2c1ccc1ccccc21 (stereo not given)
inactive: [3] 93 % of control | [9] 93 % of control

N#CC(CN1CCOCC1)[N+](=O)[O-] (stereo not given)
inactive: [4] 98 % of control | [7] 93 % of control | [8] 95 % of control

CNC(=O)Oc1ccc(C(=O)OCCO)cc1
inactive: dose: 100.0 mg/kg/injection, schedule: Q01DX001 (ip), vehicle: saline 90 % of control | dose: 200.0 mg/kg/injection, schedule: Q01DX001 (ip), vehicle: saline 88 % of control | dose: 400.0 mg/kg/injection, schedule: Q01DX001 (ip), vehicle: saline 88 % of control

O=C(OC1COC(OCc2ccccc2)C(OC(=O)c2ccccc2)C1OC(=O)c1ccccc1)c1ccccc1 (stereo not given)
inactive: [1] 94 % of control | [4] 93 % of control and 87 % of control

O=C(COc1cc(Cl)c(Cl)cc1Cl)Nc1ccccc1
inactive: [10] 92 % of control | [11] 100 % of control | [12] 103 % of control

N=C(N)SCC(O)c1ccccc1 (stereo not given)
inactive: [6] 104 % of control | [5] 95 % of control

COCCOCCOC(C)Oc1ccc(C(=O)OC)cc1 (stereo not given)
inactive: [10] 105 % of control | [11] 92 % of control | [12] 108 % of control

CC(=O)OC1Cc2ccccc21 (stereo not given)
inactive: [3] 96 % of control | [4] 95 % of control | dose: 200.0 mg/kg/injection, schedule: Q01DX009 (ip), vehicle: saline with Tween-80 109 % of control | [7] 96 % of control | [9] 100 % of control | [8] 98 % of control
